One data set has as its system platelets. Put plainly: In vivo platelet toxicity test in mice.
For data set [1], the system named is Molt-4 cells. As to the kind of experiment: Detection of E3 enzyme-dependence: Molt-4 cell killing with or without pomalidomide (CCK-8). The class given is cell-based. The conditions noted are these: 10 µM pomalidomide, Figure 2.
Data set [2] relates to Molt-4 cells. As to the kind of experiment: Molt-4 cell killing activity test (CCK-8). The conditions noted are these: for EC50: Homo sapiens. Format: cell-based. The procedure, abridged: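 Molt-4 cells in RPMI-1640 with 10% FBS were exposed to compounds at 0.001–3 µM final, triplicate wells, for three days at 37°C. Viability was read by CCK-8 absorbance at 450 nm after 0.5–2 h, expressed relative to blank control.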

[3] abbreviates: 72 h, Molt-4 cells, three days, CCK-8, read-out: EC50 (Molt-4).
[4] abbreviates: Bcl-xL-positive Molt-4 cells, read-out: cellular activity / killing activity (Molt-4 cells).

The values below come from EP4759810A1, “PROTAC TARGETING BCL-XL PROTEIN AND USE THEREOF” (BEIJING SUNCELL BIO-MEDICAL CO., LTD., priority 2023, dated 2025).

Structures are written as SMILES. Where two headings read alike, the source gives them in different places.

Experimental for platelets: The in vivo platelet toxicity test was performed by using 5-6 week old female C57BL/6J mice. The C57BL/6J mice were purchased from Beijing Vital River Laboratory Animal Technology Co., Ltd. and housed under specific pathogen-free (SPF) conditions, with a 12-hour light/12-hour dark cycle, and free access to food and water. […] Different doses of the molecules to be tested (e.g., 0.1, 0.5, 2.5 mg/kg or 2, 5, 20 mg/kg) were prepared in advance with the aforementioned vehicle, and administered to mice via intraperitoneal injection at a volume of 200 µL for each mouse. After administration was completed, approximately 50 µL of blood was collected from each mouse at different time points via the intra-canthus sampling method into EDTA anticoagulant tubes (RAM Scientific), then a routine analysis of blood was performed by using a hematology analyzer, and the platelets was counted.

Consider `O=C1CCN(c2ccc(N3CCC(CN4CCN(CC#Cc5ccc(OCCCc6ccc(N7CCc8cccc(C(=O)Nc9nc%10ccccc%10s9)c8C7)nc6C(=O)O)c(F)c5)CC4)CC3)cc2)C(=O)N1` [APQ10], for which, in the data set on platelets (intraperitoneal, 5 mg/kg, Figure 5B), the “platelet number in peripheral blood, in words” value is listed as “slightly decrease in platelet number”. The “platelet number at the highest dose” value with platelets (intraperitoneal, 20 mg/kg, decrease lower than A-1331852 at 2 mg/kg, Figure 5C) was “significant decrease in the platelet number”. Also, the “platelet toxicity compared to A-1331852 at equivalent doses” value with platelets (intraperitoneal, 2, 5, and 20 mg/kg, Figure 5C) is “lower platelet toxicity”. Further, in the data set with Molt-4 cells [1], the “cell killing activity after addition of pomalidomide (+poma) compared to without (-poma)” value is on record as “significantly reduced cell killing activity”. Moreover, the EC50 with Molt-4 cells [2] (setting [3]) and with Molt-4 cells [2] (setting [4]) was less than 10 nM each time.

As for `O=C1CCC(N2C(=O)c3cccc(NCCN4CCC(CN5CCN(CC#Cc6ccc(OCCCc7ccc(N8CCc9cccc(C(=O)Nc%10nc%11ccccc%11s%10)c9C8)nc7C(=O)O)c(F)c6)CC5)CC4)c3C2=O)C(=O)N1` (centres unmarked) [APQ2], the platelet number entry in the data set on platelets (intraperitoneal, three tested dose groups 0.1, 0.5, and 2.5 mg/kg, Figure 5A) is recorded as “no significant decrease in platelet number”. In the data set on Molt-4 cells [1], the “cell killing activity after addition of pomalidomide (+poma) compared to without (-poma)” value is “significantly reduced cell killing activity”. In addition, in the data set on Molt-4 cells [2] (Figure 1, 0.001-3 µM, comparison with control molecules), the “killing Molt-4 cells at different concentrations (Figure 1), in words” value was “comparable to A-1331852”. Also, the EC50 in the data set with Molt-4 cells [2] (setting [3]) and in the data set on Molt-4 cells [2] (setting [4]) was less than 10 nM throughout.
